From publication PMC6321136, “Combined In Vitro Studies and in Silico Target Fishing for the Evaluation of the Biological Activities of Diphylleia cymosa and Podophyllum hexandrum” (Molecules, 2018)
Read-outs that look alike come from different tables or passages of the source.

Columns and labels:
[1] = tested on: Anticancer, Colon Tumor; parameters: method as in PubChem Bioassay AID 771; settings: ref PubChem Bioassay AID 771; cited from earlier work
[2] = tested on: Agonist, glucocorticoid receptor (GR); parameters: method as in PubChem Bioassay AID 720691; settings: ref PubChem Bioassay AID 720691; cited from earlier work
[3] = tested on: Cytotoxicity, Antagonist, androgen receptor (AR); parameters: method as in PubChem Bioassay AID 743041; settings: ref PubChem Bioassay AID 743041; cited from earlier work
[4] = tested on: Anticancer, colon; parameters: method as in PubChem Bioassay AID 1834; settings: ref PubChem Bioassay AID 1834; cited from earlier work
[5] = tested on: Activate, aryl hydrocarbon receptor (AhR); parameters: method as in PubChem Bioassay AID 743122; settings: ref PubChem Bioassay AID 743122; cited from earlier work
[6] = tested on: Antagonist, thyroid receptor (TR); parameters: method as in PubChem Bioassay AID 743065; settings: ref PubChem Bioassay AID 743065; cited from earlier work
[7] = tested on: Antagonist, vitamin D receptor (VDR); parameters: method as in PubChem Bioassay AID 743242; settings: ref PubChem Bioassay AID 743242; cited from earlier work
[8] = tested on: Angiogenesis model; parameters: method as in PubChem Bioassay AID 1117337; settings: ref PubChem Bioassay AID 1117337; cited from earlier work
[9] = tested on: Antagonist, androgen receptor (AR); parameters: method as in PubChem Bioassay AID 1259243; settings: ref PubChem Bioassay AID 1259243; cited from earlier work
[10] = tested on: Agonist, thyroid stimulating hormone receptor (TSHR); parameters: method as in PubChem Bioassay AID 1224843; settings: ref PubChem Bioassay AID 1224843; cited from earlier work
[11] = tested on: Antagonist, androgen receptor (AR); parameters: method as in PubChem Bioassay AID 743042; settings: ref PubChem Bioassay AID 743042; cited from earlier work
[12] = tested on: Agonist, thyroid receptor (TR); parameters: method as in PubChem Bioassay AID 743066; settings: ref PubChem Bioassay AID 743066; cited from earlier work
[13] = tested on: Antagonist, androgen receptor (AR); parameters: method as in PubChem Bioassay AID 743063; settings: ref PubChem Bioassay AID 743063; cited from earlier work
[14] = tested on: Antagonist, androgen receptor (AR); parameters: method as in PubChem Bioassay AID 1259247; settings: ref PubChem Bioassay AID 1259247; cited from earlier work
[15] = tested on: Cytotoxicity, Agonist, AP-1; parameters: method as in PubChem Bioassay AID 1159525; settings: ref PubChem Bioassay AID 1159525; cited from earlier work
[16] = tested on: Cytotoxicity, Agonist, peroxisome proliferator-activated receptor delta (PPARd); parameters: method as in PubChem Bioassay AID 743211; settings: ref PubChem Bioassay AID 743211; cited from earlier work
[17] = tested on: Anticancer, Melanoma; parameters: method as in PubChem Bioassay AID 192; settings: ref PubChem Bioassay AID 192; cited from earlier work
[18] = tested on: Anticancer, Leukemia; parameters: method as in PubChem Bioassay AID 250; settings: ref PubChem Bioassay AID 250; cited from earlier work
[19] = tested on: Activators, heat shock response; parameters: method as in PubChem Bioassay AID 743228; settings: ref PubChem Bioassay AID 743228; cited from earlier work
[20] = tested on: Antagonist, retinoid-related orphan receptor gamma (ROR-gamma); parameters: method as in PubChem Bioassay AID 1159521; settings: ref PubChem Bioassay AID 1159521; cited from earlier work
[21] = tested on: Antagonist, androgen receptor (AR); parameters: method as in PubChem Bioassay AID 743035; settings: ref PubChem Bioassay AID 743035; cited from earlier work
[22] = biological target: T1, acetylcholinesterase enzyme (Electropardus electricous type VI-S) (Electrophorus electricus, UniProt O42275); assay: AChE bioautographic assay (TLC); format: biochemical; parameters: key: -: not active; +: slight inhibition; ++++: strong inhibition; settings: intensity of white bands
T1 construct: purchased Sigma-Aldrich, St. Louis, MO, USA type VI-S (catalogue number not given)
Method: The bioautographic assay was performed by thin layer chromatography (TLC) according to the method proposed by Marston, Kissling and Hostettman. The extracts were solubilized in methanol (Merck) at 20 mg/mL, and a portion of 10 μL of this solution was applied on a TLC plate (silica gel 60 F254, Merck, Darmstadt, Germany), which was eluted with CHCl3:MeOH (9:1). The acetylcholinesterase enzyme (Electropardus electricous type VI-S, Sigma-Aldrich, St. Louis, MO, USA) solution was prepared by diluting 1 KU of the enzyme in 30 mL of Tris/HCl buffer, pH 7.8, with the addition of 30 mg of bovine serum albumin (BSA). The enzyme solution was sprayed on the TLC plate and incubated in a humid chamber at 37 °C for 20 min. The substrate solution was prepared using 1-naphthyl acetate (2.5 mg/mL) and Fast Blue B salt (2.5 mg/mL), and sprayed on the TLC plate after the incubation period. […] The result was expressed by the intensity of the white bands observed.

[23] = tested on: Cytotoxicity, Activators, heat shock response (counterscreen); parameters: method as in PubChem Bioassay AID 743209; settings: ref PubChem Bioassay AID 743209; cited from earlier work
[24] = tested on: Agonist, Histone H2A.x; parameters: method as in PubChem Bioassay AID 1224896; settings: ref PubChem Bioassay AID 1224896; cited from earlier work
[25] = tested on: Anti-Inflammatory model; parameters: method as in PubChem Bioassay AID 438; settings: ref PubChem Bioassay AID 438; cited from earlier work

T1 sequence (O42275 24-633): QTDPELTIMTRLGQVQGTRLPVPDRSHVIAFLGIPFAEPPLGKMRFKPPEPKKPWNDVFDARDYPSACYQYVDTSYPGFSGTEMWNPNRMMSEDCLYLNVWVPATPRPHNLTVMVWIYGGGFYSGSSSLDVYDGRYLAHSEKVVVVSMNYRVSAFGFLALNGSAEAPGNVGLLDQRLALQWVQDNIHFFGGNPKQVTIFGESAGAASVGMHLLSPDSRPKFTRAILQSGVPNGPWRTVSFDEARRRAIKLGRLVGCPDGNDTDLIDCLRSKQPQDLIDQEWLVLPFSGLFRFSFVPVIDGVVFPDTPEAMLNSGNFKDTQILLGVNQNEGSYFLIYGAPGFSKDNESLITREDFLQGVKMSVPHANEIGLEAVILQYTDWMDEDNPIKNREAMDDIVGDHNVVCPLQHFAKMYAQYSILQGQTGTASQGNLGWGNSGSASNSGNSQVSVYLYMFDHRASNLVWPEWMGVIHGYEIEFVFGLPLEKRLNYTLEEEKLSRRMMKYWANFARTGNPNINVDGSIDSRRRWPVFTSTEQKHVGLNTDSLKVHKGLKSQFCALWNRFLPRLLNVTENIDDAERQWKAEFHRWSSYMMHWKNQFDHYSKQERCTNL

Which “Exper. Activity” value [1] does the source give for `COc1cc([C@@H]2c3cc4c(cc3[C@H](O)[C@H]3COC(=O)[C@H]23)OCO4)cc(OC)c1OC` [Podophyllotoxin, podophyllotoxin] here?
The value was “Inactive”.

What about the “Exper. Activity” value [2] of the same compound?
The value was “Inactive”.

And the “Exper. Activity” value [3]?
The value was “Inactive”.

And the “Exper. Activity” value [4]?
Its value is “Active”.

What about the “Exper. Activity” value [5] of the same compound?
Its value is “Active”.

What about the “Exper. Activity” value [6] of the same compound?
The value was “Active”.

And the “Exper. Activity” value [7]?
The value was “Active”.

What about the “Exper. Activity” value [8] of the same compound?
The value was “Active”.

What about the “Exper. Activity” value [9] of the same compound?
Its value is “Inactive”.

What about the “Exper. Activity” value [10] of the same compound?
Its value is “Inactive”.

And the “Exper. Activity” value [11]?
The value was “Inactive”.

And the “Exper. Activity” value [12]?
The value was “Inactive”.

And the “Exper. Activity” value [13]?
The value was “Active”.

What about the “Exper. Activity” value [14] of the same compound?
Its value is “Inactive”.

What about the “Exper. Activity” value [15] of the same compound?
The value was “Inactive”.

And the “Exper. Activity” value [16]?
Its value is “Inactive”.

And the “Exper. Activity” value [17]?
Its value is “Inactive”.

What about the “Exper. Activity” value [18] of the same compound?
The value was “Inactive”.

And the “Exper. Activity” value [19]?
Its value is “Inactive”.

What about the “Exper. Activity” value [20] of the same compound?
Its value is “Active”.

What about the “Exper. Activity” value [21] of the same compound?
Its value is “Active”.

And the “Inhibition of AChE TLC” value [22]?
Its value is “-”.

What about the “Exper. Activity” value [23] of the same compound?
Its value is “Inactive”.

And the “Exper. Activity” value [24]?
The value was “Inactive”.

And the “Exper. Activity” value [25]?
Its value is “Active”.
